From patent US4153710A, “N-(4-[2-(pyrazole-1-carbonamide)-ethyl]-benzenesulphonyl)-urea” (Starogardzkie Zaklady Farmaceutyczne POLFA, priority 1976, dated 1979)
“And” between values parts separate entries of the source, which are not always exact repeats. Identical values can stand only once. Values belong to the molecule of their own block, whether it stands above or below them.

Tests used:
[1] = test system: calcium transmission in mitochondria of a rat's liver; assay: Calcium transmission to rat liver mitochondria; type: biochemical; settings: for % of inhibition, calcium transmission: medium with CaCl 300 nmoles/ml; for Ki / preference of inhibition: calcium transmission versus oxidizing processes: rat liver mitochondria
Method: Sucrose 170mM, KCl 10 mM, MgCl2 […], K2 HPO 5 mM, EGTA 0.01 mM
2-oxoglutaran 2 mM, ADP 1 mM, mitochondria
protein 4 mg/m. Temperature 25° C.
of hydrogen ion consumption. The calcium transmission to mitochondria was
studied with two methods; in a continuous way with a Radiometer calcium
electrode type F2112 or with an isotopic method.
*The medium contained Ca Cl 300 nmoles/ml.

[2] = test system: oxygen consumption in mitochondria of a rat's liver; assay: Oxygen consumption of rat liver mitochondria; type: biochemical; settings: for Ki: rat liver mitochondria
Method: 2-oxoglutaran 2 mM, ADP 1 mM, mitochondria | protein 4 mg/m. […] The

[3] = test system: oxidizing phosphorylation in mitochondria of a rat's liver; assay: Oxidizing phosphorylation of rat liver mitochondria; type: biochemical; settings: for Ki: rat liver mitochondria
Method: 2-oxoglutaran 2 mM, ADP 1 mM, mitochondria | protein 4 mg/m. […] The | oxidizing phosphorylation speed was determined by means of the measuremen | of hydrogen ion consumption. The calcium transmission to mitochondria was […]

[4] = test system: blood-glucose concentration; assay: ED30 oral hypoglycemic dose in rabbits (Table 2); type: in vivo; settings: Oryctolagus cuniculus, read-out: Effective oral doses ED30
Method: (§1) The hypoglycemic activity of N-{4-[2-(pyrazole-1-carbonamide)-ethyl]-benzenesulphonyl}-ureas prepared according to the present invention can be noticed after their oral administration to mice, rats, rabbits and people and when determining the glucose concentration in blood with a known enzymatic method using glucose oxidase.
(§2) (Table 2). […] It has been observed that even 9 hours after the administration of one dose of SPC-5002 to rats, the glucose level in blood was decreased, whereas in the case of Glibornuride the glucose level comes back to its normal value in 6 hours from the time of the administration.

[5] = test system: blood-glucose concentration; assay: Blood-glucose time course up to 24 hours in rabbits (Table 4); type: in vivo; settings: oral 5 mg/kg
Method: as §1, with “oxidase. […]” for “oxidase.”
(§3) The comparison of SPC-5002 and Glibornuride effect on changes in
concentration of rabbits in time up to 24 hours from the moment of the
in an oral dose containing 5 mg/kg body weight

[6] = test system: blood-glucose concentration; assay: Decrease in blood-glucose concentration in rats after oral dose (Table 1; ED30 rats Table 2); type: in vivo; settings: Rattus norvegicus, oral, read-out: Effective oral doses ED30
Text: as §1
The exemplary comparison of effective doses (ED30) and the effect of oral dose size of the compounds prepared according to the present invention with Glibornuride, which is distinguished by its high effectiveness and good tolerance when administered to people, on the glucose concentration in the blood of rats, is given in Table 1.

[7] = test system: free fatty acids concentration; assay: Free fatty acids in normal men volunteers (Table 7); type: in vivo; settings: oral 5 mg SPC-5002 or 12.5 mg Glibornuride
Method: (§4) When administered to normal men volunteers it has been stated that 60 minutes after the administration of SPC-5002 a 5 mg oral dose causes the decrease in blood-glucose of 28% in comparision to the starting value and after 90 minutes it reaches 33% (Table 7). Whereas Glibornuride employed in a dose 2.5 times as big on peak of its activity decreases the glucose blood level only of 19%. It can clearly be noticed that there is a positive correlation between the glycemic and insulin level curves. Both examined preparations cause a significant decrease in free fatty acids in blood. […] 60 and 90 minutes after the SPC-5002 administration, the blood-glycose level is decreased to 33 and 52% while in the Placebo group it is maintained in the range of 13-14%.
(§5) The comparison of glucose, insulin and free fatty acids concentration in
(§6) normal men after the oral administration of 5 mg of SPC-5002 or 12.5 mg

[8] = test system: insulin concentration; assay: Insulin in normal men volunteers (Table 7); type: in vivo; settings: oral 5 mg SPC-5002 or 12.5 mg Glibornuride
Method: as §4, §5, §6

[9] = test system: glucose concentration; assay: Blood glucose in normal men volunteers (Table 7); type: in vivo; settings: for Glucose concentration: oral 5 mg SPC-5002 or 12.5 mg Glibornuride
Method: as §1, §4, §5, §6

[10] = test system: blood-glucose concentration; assay: Blood-glucose time course up to 24 hours in rats (Table 3); type: in vivo; settings: for glucose concentration in blood, average: oral 4 mg/kg
Method: as §1, §2, §3
concentration of rats in time up to 24 hours from the moment of the
in an oral dose containing 4 mg/kg body weight

[11] = test system: blood-glucose concentration; assay: ED30 oral hypoglycemic dose in mice (Table 2); type: in vivo
Method: as §1, §2

- Ki [1]: 47 µM
- Ki ratio SPC-5002 / Glibenclamide, calcium transmission ([1]; ratio of inhibitor constants): 10
- Ki [2]: 30 µM
- Ki [3]: 22 µM
Compound: COc1ccc(Cl)cc1C(=O)NCCc1ccc(S(=O)(=O)NC(=O)NC2CCCCC2)cc1 [Glibenclamide]
- Calcium transmission / Oxide consumption (ratio of inhibition) ([1]; concentration 0.01 n M): 0.46
- % of inhibition, calcium transmission ([1]; concentration 0.01 n M): 12%
- Calcium transmission / Oxide consumption (ratio of inhibition) ([1]; concentration 0.02 n M): 0.65
- % of inhibition, calcium transmission ([1]; concentration 0.02 n M): 28%
- Calcium transmission / Oxide consumption (ratio of inhibition) ([1]; concentration 0.05 n M): 0.82
- % of inhibition, calcium transmission ([1]; concentration 0.05 n M): 52%
- Calcium transmission / Oxide consumption (ratio of inhibition) ([1]; concentration 0.1 n M): 0.90
- % of inhibition, calcium transmission ([1]; concentration 0.1 n M): 68%
- Calcium transmission / Oxide consumption (ratio of inhibition) ([1]; concentration 0.5 n M): 0.97
- % of inhibition, calcium transmission ([1]; concentration 0.5 n M): 85%
- preference of inhibition: calcium transmission versus oxidizing processes [1]: acts much stronger on oxidizing and phosphorylation processes than on the calcium transmission
- % of inhibition, oxygen consumption ([2]; concentration 0.01 n M): 26%
- % of inhibition, oxygen consumption ([2]; concentration 0.02 n M): 43%
- % of inhibition, oxygen consumption ([2]; concentration 0.05 n M): 60% and 63%
- % of inhibition, oxygen consumption ([2]; concentration 0.1 n M): 75%
- % of inhibition, oxygen consumption ([2]; concentration 0.5 n M): 87%
- % of inhibition, oxidizing phosphorylation ([3]; concentration 0.01 n M): 29%
- % of inhibition, oxidizing phosphorylation ([3]; concentration 0.02 n M): 48%
- % of inhibition, oxidizing phosphorylation ([3]; concentration 0.05 n M): 60%
- % of inhibition, oxidizing phosphorylation ([3]; concentration 0.1 n M): 80%
- % of inhibition, oxidizing phosphorylation ([3]; concentration 0.5 n M): 100%

- Ki [1]: 490 µM
- Ki [2]: 1150 µM
- Ki [3]: 760 µM
Compound: Cc1ccc(S(=O)(=O)NC(=O)N[C@H]2[C@H]3CC[C@@](C)([C@H]2O)C3(C)C)cc1 [Glibornuride, N-(p-toluenesulphonyl)-N'-(2-endo-hydroxy-3-endo-bornyl)-urea, reference compound]
- ED30 [4]: 7.6 mg/kg
- Calcium transmission / Oxide consumption (ratio of inhibition) ([1]; concentration 0.5 n M): 2.36
- % of inhibition, calcium transmission ([1]; concentration 0.5 n M): 52%
- Calcium transmission / Oxide consumption (ratio of inhibition) ([1]; concentration 1.0 n M): 1.60
- % of inhibition, calcium transmission ([1]; concentration 1.0 n M): 76%
- preference of inhibition: calcium transmission versus oxidizing processes [1]: preferential inhibiting of calcium transmission
- glucose concentration in blood, average ([5]; 0 h): 74 mg/100 cc
- glucose concentration in blood, average ([5]; 0.5 h): 62 mg/100 cc
- glucose concentration in blood, average ([5]; 1 h): 63 mg/100 cc
- % of decrease /-/ or increase /+/ of blood glucose ([5]; 3 h): 0%
- glucose concentration in blood, average ([5]; 3 h): 74 mg/100 cc
- glucose concentration in blood, average ([5]; 6 h): 75 mg/100 cc
- glucose concentration in blood, average ([5]; 9 h): 75 mg/100 cc
- glucose concentration in blood, average ([5]; 24 h): 78 mg/100 cc
- ED30 [6]: 3.8 mg/kg
- Free fatty acids concentration ([7]; 0 mins (empty stomach)): 0.76 mEq/1000 cc
- Free fatty acids concentration ([7]; 30 mins): 0.58 mEq/1000 cc
- Free fatty acids concentration ([7]; 60 mins): 0.46 mEq/1000 cc
- Free fatty acids concentration ([7]; 90 mins): 0.48 mEq/1000 cc
- Free fatty acids concentration ([7]; 120 mins): 0.51 mEq/1000 cc
- Free fatty acids concentration ([7]; 180 mins): 0.52 mEq/1000 cc
- % of inhibition, oxygen consumption ([2]; concentration 0.5 n M): 22%
- % of inhibition, oxygen consumption ([2]; concentration 1.0 n M): 47%
- Insulin concentration ([8]; 0 mins (empty stomach)): 3.6 μU/cc
- Insulin concentration ([8]; 30 mins): 4.2 μU/cc
- Insulin concentration ([8]; 60 mins): 6.2 μU/cc
- Insulin concentration ([8]; 90 mins): 5.2 μU/cc
- Insulin concentration ([8]; 120 mins): 6.4 μU/cc
- Insulin concentration ([8]; 180 mins): 4.4 μU/cc
- % of inhibition, oxidizing phosphorylation ([3]; concentration 0.5 n M): 32%
- % of inhibition, oxidizing phosphorylation ([3]; concentration 1.0 n M): 59%
- decrease in glucose blood level at peak of activity ([9]; dose 2.5 times that of SPC-5002 (12.5 mg)): 19%
- Glucose concentration ([9]; 0 mins (empty stomach)): 91.0 mg/100 cc
- Glucose concentration ([9]; 30 mins): 87.0 mg/100 cc
- Glucose concentration ([9]; 60 mins): 80.0 mg/100 cc
- Glucose concentration ([9]; 90 mins): 74.0 mg/100 cc
- Glucose concentration ([9]; 120 mins): 75.0 mg/100 cc
- Glucose concentration ([9]; 180 mins): 76.0 mg/100 cc
- duration of decreased blood glucose after one dose ([10]; one dose): 6 h
- glucose concentration in blood, average ([10]; 0 h): 68 mg/100 cc
- glucose concentration in blood, average ([10]; 1 h): 48 mg/100 cc
- glucose concentration in blood, average ([10]; 3 h): 47 mg/100 cc
- glucose concentration in blood, average ([10]; 6 h): 65 mg/100 cc
- glucose concentration in blood, average ([10]; 9 h): 74 mg/100 cc
- glucose concentration in blood, average ([10]; 24 h): 77 mg/100 cc
- ED30 relative to SPC-5002 [11]: almost three times as big as for SPC-5002
- ED30 ([11]; Mus musculus, oral, read-out: Effective oral doses ED30): 5.2 mg/kg

Compound: CCCCNC(=O)NS(=O)(=O)c1ccc(C)cc1 [Tolbutamide]
- Calcium transmission / Oxide consumption (ratio of inhibition) ([1]; concentration 1.0 n M): 1.92
- % of inhibition, calcium transmission ([1]; concentration 1.0 n M): 27%
- preference of inhibition: calcium transmission versus oxidizing processes [1]: preferential inhibiting of calcium transmission
- % of inhibition, oxygen consumption ([2]; concentration 1.0 n M): 14%
- % of inhibition, oxidizing phosphorylation ([3]; concentration 1.0 n M): 7%
